The test system of one assay is HeLa. As to the kind of experiment: cells. It is filed as functional, cell-based. As to conditions: Homo sapiens, 72 h.
The target in the next assay is Histone deacetylase 1 (Homo sapiens, UniProt Q13547). Kind of assay: Inhibition of recombinant human C-terminal His/FLAG-tagged HDAC1 (1 to end residues) expressed in sf9 insect cells using Boc-Lys(Ac)-AMC as substrate incubated for 60 mins by fluorescence assay.
The target in a further assay is T1, Histone deacetylase 8 (Homo sapiens, UniProt Q9BY41).
T1 sequence (Q9BY41 whole entry): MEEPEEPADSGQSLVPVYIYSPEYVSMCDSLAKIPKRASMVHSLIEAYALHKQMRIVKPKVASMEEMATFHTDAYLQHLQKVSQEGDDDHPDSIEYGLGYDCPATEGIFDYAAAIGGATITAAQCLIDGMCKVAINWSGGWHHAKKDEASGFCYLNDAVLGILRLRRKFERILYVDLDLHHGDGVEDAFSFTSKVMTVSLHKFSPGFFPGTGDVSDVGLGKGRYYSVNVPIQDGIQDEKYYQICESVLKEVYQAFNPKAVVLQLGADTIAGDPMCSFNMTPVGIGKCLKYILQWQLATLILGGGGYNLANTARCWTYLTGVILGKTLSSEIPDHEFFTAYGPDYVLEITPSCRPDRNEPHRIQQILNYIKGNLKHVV
As to the kind of experiment: Inhibition of recombinant human full length C-terminal His-tagged HDAC8 expressed in sf9 insect cells using Boc-Lys(TFA)-AM as substrate incubated for 60 mins by fluorescence assay.

In another assay the test system is MCF7. As to the kind of experiment: cells. To be noted: Homo sapiens, MCF7, 72 h.
Assay [1] has as its system HCT-116. As to the kind of experiment: Antiproliferative activity against human HCT-116 cells assessed as reduction in cell viability after 72 hrs by MTT assay. It is filed as functional, cell-based. To be noted: HCT-116, 72 h.
A further assay concerns the target Histone deacetylase 2 (Homo sapiens, UniProt Q92769). Kind of assay: Inhibition of recombinant human C-terminal His-tagged HDAC2 (1 to end residues) expressed in sf9 insect cells using Boc-Lys(Ac)-AMC as substrate incubated for 60 mins by fluorescence assay.
Assay [2] relates to HCT-116. As to the kind of experiment: Induction of apoptosis in human HCT-116 cells assessed as late apoptotic cells at 1 uM after 24 hrs by Annexin V-FITC/PI staining based flow cytometric analysis (reference value: 5.14%). It is filed as functional.
Assay [3] deals with HCT-116. Kind of assay: Induction of apoptosis in human HCT-116 cells assessed as necrotic cells at 10 uM after 24 hrs by Annexin V-FITC/PI staining based flow cytometric analysis (reference value: 0.51%). Format: functional. (In general: In flow cytometry, cells or beads pass a laser one at a time.)
Assay [4] deals with HCT-116. As to the kind of experiment: Induction of cell cycle arrest in human HCT116 cells assessed as cell accumulation at G0/G1 phase at 3 uM after 24 hrs by Rnase/PI staining based flow cytometric analysis (reference value: 48.4%). It is filed as functional.
The subject of assay [5] is HCT-116. Kind of assay: Induction of apoptosis in human HCT-116 cells assessed as early apoptotic cells at 10 uM after 24 hrs by Annexin V-FITC/PI staining based flow cytometric analysis (reference value: 4.01%). Format: functional.
For assay [6], the system named is HCT-116. Kind of assay: Induction of apoptosis in human HCT-116 cells assessed as viable cells at 3 uM after 24 hrs by Annexin V-FITC/PI staining based flow cytometric analysis (reference value: 90.34%). Format: functional.
The subject of assay [7] is HCT-116. Kind of assay: Induction of cell cycle arrest in human HCT116 cells assessed as cell accumulation at S phase at 3 uM after 24 hrs by Rnase/PI staining based flow cytometric analysis (reference value: 25.2%). Format: functional.
The subject of assay [8] is HCT-116. Kind of assay: Induction of apoptosis in human HCT-116 cells assessed as early apoptotic cells at 1 uM after 24 hrs by Annexin V-FITC/PI staining based flow cytometric analysis (reference value: 4.01%). It is filed as functional.
The test system of assay [9] is HCT-116. As to the kind of experiment: Induction of apoptosis in human HCT-116 cells assessed as late apoptotic cells at 10 uM after 24 hrs by Annexin V-FITC/PI staining based flow cytometric analysis (reference value: 5.14%). Format: functional.
Assay [10] relates to HCT-116. As to the kind of experiment: Induction of cell cycle arrest in human HCT116 cells assessed as cell accumulation at G2/M phase at 3 uM after 24 hrs by Rnase/PI staining based flow cytometric analysis (reference value: 26.4%). It is filed as functional.
For assay [11], the system named is HCT-116. Kind of assay: Induction of apoptosis in human HCT-116 cells assessed as early apoptotic cells at 3 uM after 24 hrs by Annexin V-FITC/PI staining based flow cytometric analysis (reference value: 4.01%). It is filed as functional.
The subject of assay [12] is HCT-116. As to the kind of experiment: Induction of apoptosis in human HCT-116 cells assessed as viable cells at 1 uM after 24 hrs by Annexin V-FITC/PI staining based flow cytometric analysis (reference value: 90.34%). It is filed as functional.
Assay [13] relates to HCT-116. Kind of assay: Induction of apoptosis in human HCT-116 cells assessed as necrotic cells at 3 uM after 24 hrs by Annexin V-FITC/PI staining based flow cytometric analysis (reference value: 0.51%). It is filed as functional.
Assay [14] has as its system HCT-116. As to the kind of experiment: Induction of apoptosis in human HCT-116 cells assessed as late apoptotic cells at 3 uM after 24 hrs by Annexin V-FITC/PI staining based flow cytometric analysis (reference value: 5.14%). Format: functional.

Histone deacetylase 2, sequence (Q92769 whole entry): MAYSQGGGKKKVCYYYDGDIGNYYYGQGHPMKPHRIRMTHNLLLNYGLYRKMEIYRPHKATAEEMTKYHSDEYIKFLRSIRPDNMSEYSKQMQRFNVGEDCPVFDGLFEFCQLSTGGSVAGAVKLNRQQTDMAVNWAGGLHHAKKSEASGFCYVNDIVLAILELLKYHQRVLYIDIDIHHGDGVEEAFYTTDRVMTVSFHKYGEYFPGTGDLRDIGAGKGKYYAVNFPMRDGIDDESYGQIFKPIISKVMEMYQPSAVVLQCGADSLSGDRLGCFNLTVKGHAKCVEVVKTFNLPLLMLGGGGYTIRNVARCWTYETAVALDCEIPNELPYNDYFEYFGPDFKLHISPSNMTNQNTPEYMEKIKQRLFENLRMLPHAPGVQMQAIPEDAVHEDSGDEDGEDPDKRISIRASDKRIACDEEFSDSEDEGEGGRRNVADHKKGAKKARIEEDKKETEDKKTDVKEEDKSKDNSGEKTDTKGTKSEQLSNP
Histone deacetylase 1, sequence (Q13547 whole entry): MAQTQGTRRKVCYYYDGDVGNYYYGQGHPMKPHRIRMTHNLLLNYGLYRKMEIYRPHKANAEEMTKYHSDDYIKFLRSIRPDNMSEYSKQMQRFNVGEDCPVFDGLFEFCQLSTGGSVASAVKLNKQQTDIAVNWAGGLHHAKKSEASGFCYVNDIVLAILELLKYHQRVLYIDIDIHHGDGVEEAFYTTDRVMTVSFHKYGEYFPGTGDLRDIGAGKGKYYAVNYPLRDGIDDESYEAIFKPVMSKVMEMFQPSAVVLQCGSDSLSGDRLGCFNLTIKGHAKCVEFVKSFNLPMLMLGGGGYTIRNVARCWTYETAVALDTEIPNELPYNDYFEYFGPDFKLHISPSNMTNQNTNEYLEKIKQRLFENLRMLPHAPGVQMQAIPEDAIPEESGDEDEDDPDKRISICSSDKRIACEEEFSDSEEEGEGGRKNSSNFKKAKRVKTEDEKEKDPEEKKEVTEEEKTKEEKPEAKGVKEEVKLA
Description for HeLa: Antiproliferative activity against human HeLa cells assessed as reduction in cell viability after 72 hrs by MTT assay
Description for MCF7: Antiproliferative activity against human MCF7 cells assessed as reduction in cell viability after 72 hrs by MTT assay

For `COc1cccc(-c2ccc3c(NC(=O)CCCCCCC(=O)NO)n[nH]c3c2)c1F`, the half-inhibitory concentration (IC50) amounted to 9800 nM in the assay on HeLa; 3.1 nM on Histone deacetylase 1; 4.4 nM at Histone deacetylase 8; 2000 nM in the assay on MCF7; 7600 nM in the assay with HCT-116 [1]; 6 nM at Histone deacetylase 2.

As to `O=C(CCCCCCC(=O)Nc1n[nH]c2cc(-c3cccc(C(F)(F)F)c3)ccc12)NO`, the concentration for half-maximal inhibition (IC50) in the assay with HeLa was found to be 6000 nM; at Histone deacetylase 1, 2.5 nM; on Histone deacetylase 8, 4.1 nM; with MCF7, 47300 nM; in the assay on HCT-116 [1] it was 2900 nM; at Histone deacetylase 2, 5 nM.

On to `COc1ccc(-c2ccc3c(NC(=O)CCCCCCC(=O)NO)n[nH]c3c2)cc1OC`, for which the IC50 with HeLa was 21300 nM; on Histone deacetylase 1 it was 3.4 nM; on Histone deacetylase 8, 3.2 nM; with MCF7, 10900 nM; with HCT-116 [1], 14600 nM; at Histone deacetylase 2, 4.6 nM.

With `COc1ccc(F)c(-c2ccc3c(NC(=O)CCCCCCC(=O)NO)n[nH]c3c2)c1`, the IC50 in the assay with HeLa is 3300 nM; on Histone deacetylase 1, 3 nM; on Histone deacetylase 8, 4.9 nM; in the assay on MCF7, 4900 nM; in the assay on HCT-116 [1], 7500 nM; at Histone deacetylase 2, 3.5 nM.

As to `CCOc1cccc(-c2ccc3c(NC(=O)CCCCCCC(=O)NO)n[nH]c3c2)c1`, the concentration for half-maximal inhibition (IC50) with HeLa worked out at 10800 nM; at Histone deacetylase 1, 2.1 nM; at Histone deacetylase 8, 3.4 nM; in the assay with MCF7, 2400 nM; in the assay with HCT-116 [1], 4200 nM; at Histone deacetylase 2 it was 4.2 nM.

`O=C(CCCCCCC(=O)Nc1n[nH]c2cc(-c3cccc(Cl)c3)ccc12)NO`: the half-maximal inhibitory concentration (IC50) with HeLa was determined as 200 nM; at Histone deacetylase 1, 3.7 nM; at Histone deacetylase 8 it was 3.8 nM; with MCF7, 27500 nM; in the assay with HCT-116 [1], 41800 nM; at Histone deacetylase 2, 4 nM.

Take `COc1cccc(-c2ccc3c(NC(=O)CCCCCCC(=O)NO)n[nH]c3n2)c1`: the IC50 in the assay with HeLa amounted to 3600 nM; at Histone deacetylase 1, 2.4 nM; on Histone deacetylase 8, 3.3 nM; in the assay with MCF7, 8600 nM; with HCT-116 [1], 2700 nM; on Histone deacetylase 2, 5.3 nM.

With `COc1cccc(-c2ccc3c(NC(=O)CCCC(=O)NO)n[nH]c3c2)c1`, the IC50 in the assay with HeLa was greater than 50000 nM; at Histone deacetylase 1 it was 76 nM; on Histone deacetylase 8, 54 nM; in the assay on MCF7 it was 41500 nM; in the assay on HCT-116 [1] it was greater than 50000 nM; at Histone deacetylase 2, 168 nM.

For the compound `O=C(CCCCCCC(=O)Nc1n[nH]c2cc(-c3ccccc3)ccc12)NO`, the IC50 in the assay with HeLa worked out at 12500 nM; at Histone deacetylase 1, 9.6 nM; on Histone deacetylase 8, 12.6 nM; in the assay with MCF7 it was 5500 nM; in the assay on HCT-116 [1] it was 10200 nM; at Histone deacetylase 2, 13.1 nM.

For `COc1cccc(-c2ccc3c(NC(=O)CCCCCC(=O)NO)n[nH]c3c2)c1`, the IC50 is 20100 nM in the assay on HeLa; 2.6 nM at Histone deacetylase 1; 4.5 nM at Histone deacetylase 8; 7400 nM in the assay with MCF7; 10600 nM with HCT-116 [1]; 63 nM on Histone deacetylase 2.

In the case of `COc1cccc(-c2ccc3c(NC(=O)C4CCC(C(=O)NO)CC4)n[nH]c3c2)c1` (centres undefined), the IC50 in the assay with HeLa is greater than 50000 nM; at Histone deacetylase 1, 2420 nM; at Histone deacetylase 8, 3340 nM; in the assay on MCF7, greater than 50000 nM; in the assay with HCT-116 [1] it was 47400 nM; at Histone deacetylase 2, 4630 nM.

On to `O=C(CCCCCCC(=O)Nc1ccccc1)NO` [VORINOSTAT], for which the Activity in the assay on HCT-116 [2] is 57.83%; in the assay with HCT-116 [3], 1.37%; in the assay on HCT-116 [4], 26.2%; with HCT-116 [5] it was 14.44%; in the assay with HCT-116 [6], 17.93%; with HCT-116 [7] it was 29.4%. Besides, the Activity in the assay with HCT-116 [8] was 12.87%; in the assay with HCT-116 [9], 67.72%; in the assay with HCT-116 [10], 44.2%; in the assay with HCT-116 [11], 12.27%; with HCT-116 [12], 77.54%; with HCT-116 [13], 2.03%. Also, the Activity in the assay on HCT-116 [14] was determined as 67.78%. Further, the figures for the IC50 in the assay with MCF7 and in the assay with HCT-116 [1] were 800 nM and 4900 nM, respectively.

For `COc1cccc(-c2ccc3c(NC(=O)CCCCC(=O)NO)n[nH]c3c2)c1`, the IC50 in the assay on HeLa worked out at 5800 nM; at Histone deacetylase 1 it was 13 nM; on Histone deacetylase 8, 41 nM; in the assay on MCF7, 4400 nM; in the assay with HCT-116 [1], 23500 nM; on Histone deacetylase 2, 62 nM.

Turning to `O=C(CCCCCCC(=O)Nc1n[nH]c2cc(-c3ccccc3Cl)ccc12)NO`, the IC50 in the assay on HeLa came to 8100 nM; on Histone deacetylase 1, 2.7 nM; at Histone deacetylase 8, 4 nM; with MCF7, 2200 nM; in the assay on HCT-116 [1], 2600 nM; on Histone deacetylase 2, 5.2 nM.

As to `O=C(CCCCCCC(=O)Nc1n[nH]c2cc(-c3ccsc3)ccc12)NO`, the IC50 in the assay with HeLa turned out to be 29500 nM; on Histone deacetylase 1, 36.2 nM; on Histone deacetylase 8, 32.5 nM; in the assay with MCF7, 8300 nM; with HCT-116 [1], 7500 nM; at Histone deacetylase 2 it was 31.6 nM.

On to `COc1ccccc1-c1ccc2c(NC(=O)CCCCCCC(=O)NO)n[nH]c2c1`, for which the IC50 was 5900 nM with HeLa; 4.6 nM at Histone deacetylase 1; 4.2 nM on Histone deacetylase 8; 5700 nM in the assay with MCF7; 2700 nM in the assay with HCT-116 [1]; 5.4 nM on Histone deacetylase 2.

For the compound `COc1cc(OC)cc(-c2ccc3c(NC(=O)CCCCCCC(=O)NO)n[nH]c3c2)c1`, the half-maximal inhibitory concentration (IC50) in the assay with HeLa was found to be 7300 nM; at Histone deacetylase 1 it was 4.6 nM; at Histone deacetylase 8, 4.4 nM; with MCF7, 55200 nM; in the assay with HCT-116 [1], 9500 nM; on Histone deacetylase 2, 4.8 nM.

As for `COc1cccc(-c2ccc3c(NC(=O)CCCCCCC(=O)NO)n[nH]c3c2)c1`, the IC50 in the assay with HeLa was found to be 3000 nM; at Histone deacetylase 1, 1.9 nM; at Histone deacetylase 8, 3 nM; in the assay with MCF7 it was 19100 nM; in the assay on HCT-116 [1], 8100 nM; on Histone deacetylase 2 it was 3.9 nM.

Regarding `O=C(CCCCCCC(=O)Nc1n[nH]c2cc(-c3ccccc3F)ccc12)NO`, the half-maximal inhibitory concentration (IC50) with HeLa is 13800 nM; on Histone deacetylase 1, 1.8 nM; at Histone deacetylase 8, 2.4 nM; in the assay on MCF7 it was 2500 nM; with HCT-116 [1], 4100 nM; at Histone deacetylase 2, 4.4 nM.

In the case of `O=C(CCCCCCC(=O)Nc1n[nH]c2cc(-c3ccncc3)ccc12)NO`, the IC50 in the assay on HeLa worked out at 6900 nM; on Histone deacetylase 1 it was 23 nM; at Histone deacetylase 8, 24.5 nM; in the assay on MCF7 it was 40100 nM; with HCT-116 [1] it was 12300 nM; at Histone deacetylase 2 it was 25.9 nM.

In general, IC50 refers to the concentration that gives 50% inhibition.
